Laboratory results from patent publication US6989435B2, “Compounds and methods to inhibit or augment an inflammatory response” (Cambridge University Technical Services Ltd., priority 1997, dated 2006).

Legend:
[1] = system: MCP-1 induced THP-1 migration; test: Trans-well THP-1 migration assay, MCP-1 as chemoattractant; format: cell-based, human; settings: concentrations above 50 μM
Experimental: (§1) FIG. 1 is a schematic of the trans-well migration assay. In most experiments, the peptide (wavy line) is added to the upper well with about 50,000 cells (O). The upper and lower wells are separated by a 5 μm or 8 μm pore size PVP-free membrane (- - - -). Chemokine (●) is added to the lower well. After 4 hours, the number of cells that have migrated through the membrane are measured (◯ in lower well).
To determine whether an agent inhibits a chemokine-induced activity, such as macrophage recruitment, varying amounts of the agent are mixed with cells in the presence of a known chemoattractant. For example, a range of known concentrations of an agent, e.g., a chemokine peptide, is incubated with a defined number (e.g., 10^4-10^6) of human THP-1 monocyte cells in individual wells of the top compartment of a trans-well plate. Chemokine (such as MCP-1, MIP1α, IL8 or SDF-1α), at a concentration known to cause significant migration of THP-1 cells in the trans-well migration assay, is placed in the lower compartment (FIG. 1). Cells are then incubated at 37° C. for a period sufficient to allow migration, e.g., 4 hours. After incubation, the cells are gently removed from the top of the filter with a pipette, 20 μl of 20 mM EDTA in simple PBS is added into each top well, and incubated for 20 minutes at 4° C. The filter is carefully flushed with media using a gentle flow, and removed. A standard curve consisting of a two-fold dilution series of THP-1 cells (in 29 μl) is prepared to accurately quantify the number of cells that have migrated. Migrated cells are stained with 3 μl of MTT stock dye solution which is added directly into each well (5 mg/ml in RPMI-1640 without phenol red, Sigma Chemical Co.) and incubated at 37° C. for 4 hours. The media is carefully aspirated from each well, and the converted dye is solubilized by 20 μl of DMSO. Absorbance of converted dye is measured at a wavelength of 595 nm using an ELISA plate reader. The number of migrated cells in each well is then determined by interpolation of the standard curve (see also Imai et al., J. Biol. Chem., 272, 15036 (1997)).
(§2) Any method suitable for counting cells can be used, for example, counting with a hemocytometer, incubation of the cells with MTT (see above), or FACS analysis. A negative control assay is also performed, using TGF-β or another non-chemokine chemoattractant (e.g., IL1β or TNFα). To assess whether the agent is cytotoxic, the same concentrations of agent are incubated with THP-1 cells. Agents which 1) are not cytotoxic at levels which inhibit migration, 2) are ineffective at inhibiting the negative control-induced migration, and 3) reduce or inhibit chemokine-induced THP-1 migration, are agents which fall within the scope of the invention.
(§3) For this assay, THP-1 cells were maintained at a density of 4×10^5 cells per ml in RPMI-1640 supplemented with 10% fetal calf serum+20 μM 2-mercaptoethanol. Chemotaxis was induced in a 96-well disposable chemotaxis chamber fitted with a […] polycarbonate filter (PVP free, ChemoTX, Neuroprobe Inc., Cabin John). Twenty-nine μl of chemoattractant (recombinant human chemokine; 50 ng/ml, i.e., 5.9 nM) or control (100 ng/ml TGFβ) was added to the lower compartment of each well. The framed filter was aligned with the holes in the corner of the filter frame and placed over the wells. Five×10^4 THP-1 cells in 25 μl of RPMI-1640 culture media were added to the upper compartment. Peptides were dissolved in Milli Q water and then serially diluted in culture medium. In most cases, the serially diluted peptides were added to the upper compartment of the chemotaxis chamber. The chamber was incubated at 37° C. in a humidified atmosphere of 5% CO2 for 4 hours.
After incubation, the cells were gently removed from the top of the filter with a pipette, 20 μl of 20 mM EDTA in PBS was added into each top well, and the mixture was incubated for 20 minutes at 4° C. The filter was then carefully flushed with media using a gentle flow, and removed. […]

[2] = system: MIP1α induced THP-1 migration; test: Trans-well THP-1 migration assay, MIP1α as chemoattractant; format: cell-based, human; settings: Table 4(b); 100 μM peptide; n.s. = no statistically significant inhibition
Experimental: as §1
To determine whether an agent inhibits a chemokine-induced activity, such as macrophage recruitment, varying amounts of the agent are mixed with cells in the presence of a known chemoattractant. For example, a range of known concentrations of an agent, e.g., a chemokine peptide, is incubated with a defined number (e.g., 10^4-10^6) of human THP-1 monocyte cells in individual wells of the top compartment of a trans-well plate. […] A standard curve consisting of a two-fold dilution series of THP-1 cells (in 29 μl) is prepared to accurately quantify the number of cells that have migrated. […] Absorbance of converted dye is measured at a wavelength of 595 nm using an ELISA plate reader. The number of migrated cells in each well is then determined by interpolation of the standard curve (see also Imai et al., J. Biol. Chem., 272, 15036 (1997)). […]

[3] = system: TGFβ1 induced THP-1 migration; test: Trans-well THP-1 migration assay, TGFβ1 as non-chemokine control chemoattractant; format: cell-based, human
Experimental: as §2
as §3, with “In most cases, the serially diluted peptides were added to the upper compartment of the chemotaxis chamber. The chamber was incubated at 37° C. in a humidified atmosphere of 5% CO2 for 4 hours.” left out
After incubation, the cells were gently removed from the top of the filter with a pipette, 20 μl of 20 mM EDTA in PBS was added into each top well, and the mixture was incubated for 20 minutes at 4° C. […] A standard curve was prepared to accurately quantify the number of THP-1 cells that had migrated. […] Absorbance of converted dye was measured at a wavelength of 595 nm using an ELISA plate reader. The number of cells that had migrated in each well was determined by interpolation of the standard curve.
To investigate the receptor specificity of peptide 3 inhibition, the ED50 was determined for peptide 3(1-12)[MCP-1] […]

T-tropic HIV isolate = test: HIV infection of Jurkat cells, reverse transcriptase assay of culture medium; format: cell-based; settings: 100 μM peptide; 3 weeks in culture
Experimental: Peptides were added on day 0, one hour prior to infection of the cells with HIV isolate. The full length chemokine SDF-1α was used as a positive control.
(SEQ ID NO:1), or (iv) 100 ng/ml SDF-1, which should bind to and block all CXCR-4 receptors. After 3 weeks in culture, viral replication was assessed by a reverse transcriptase assay of the culture medium. Peptide 3(1-12)[MCP-1]
Since peptide 2(1-15)[MCP1] […] (SEQ ID NO:3) binds and inhibits an epitope used by HIV for cell entry but not by MCP-1 for signaling. To test this hypothesis, the same HIV infection assay described above was employed to test whether peptide 2(1-15)[MCP-1] (SEQ ID NO:3) inhibits HIV infection of Jurkat cells. At 100 μM, peptide 2(1-15)[MCP-1]

For EICADPKQKWVQ [Peptide 3], the “effect on MCP-1 induced THP-1 migration at concentrations above 50 μM” value [1] was “abolished all of the MCP-1 induced THP-1 migration”, the “Extent of inhibition of THP-1 migration at 100 μM, MIP1α” value [2] was 99% and the “Extent of inhibition of THP-1 migration at 100 μM, TGFβ1” value ([3]; Table 4(b), 100 μM peptide, n.s. = no statistically significant inhibition) was “n.s”. For the same sequence, the “inhibition of TGF-beta induced THP-1 migration” value ([3]; even at 100 μM) was “did not significantly inhibit” and the “inhibition of Jurkat cell infection by HIV” value (T-tropic HIV isolate) was “effective inhibitor”.
